From US20230250066A1, “HERBICIDAL CINNOLINE DERIVATIVES” (SYNGENTA CROP PROTECTION AG, priority 2020, published 2023)

What was measured:
Type in all cases: in vivo
[1] = system: Echinochloa crus-galli (ECHCG); experiment: Pre-emergence herbicidal test; conditions: 1000 g/ha, evaluated after 13 days
Solanum nigrum (SOLNI) [2] = experiment: Pre-emergence herbicidal test; conditions: 1000 g/ha, evaluated after 13 days
Lolium perenne (LOLPE) [3] = experiment: Pre-emergence herbicidal test; conditions: 1000 g/ha, evaluated after 13 days
[4] = system: Ipomoea hederacea (IPOHE); experiment: Pre-emergence herbicidal test; conditions: 1000 g/ha, evaluated after 13 days
Setaria faberi (SETFA) [5] = experiment: Pre-emergence herbicidal test; conditions: 1000 g/ha, evaluated after 13 days
[6] = system: Amaranthus retoflexus (AMARE); experiment: Pre-emergence herbicidal test; conditions: 1000 g/ha, evaluated after 13 days
[7] = system: Amaranthus retoflexus (AMARE); experiment: Post-emergence herbicidal test; conditions: 1000 g/ha unless otherwise stated, evaluated after 13 days
In short: (§1)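 Pots sown in standard soil were kept in a glasshouse (24° C./16° C. day/night, 14 hours light, 65% humidity) and sprayed at 1000 g/ha unless otherwise stated in acetone/water (50:50) with 0.5% Tween 20. Percentage damage was scored after 13 days on a 0–5 scale.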

Setaria faberi (SETFA) [8] = experiment: Post-emergence herbicidal test; conditions: 1000 g/ha unless otherwise stated, evaluated after 13 days
In short: as §1

[9] = system: Echinochloa crus-galli (ECHCG); experiment: Post-emergence herbicidal test; conditions: 1000 g/ha unless otherwise stated, evaluated after 13 days
In short: as §1

Solanum nigrum (SOLNI) [10] = experiment: Post-emergence herbicidal test; conditions: 1000 g/ha unless otherwise stated, evaluated after 13 days
In short: as §1

Lolium perenne (LOLPE) [11] = experiment: Post-emergence herbicidal test; conditions: 1000 g/ha unless otherwise stated, evaluated after 13 days
In short: as §1

[12] = system: Ipomoea hederacea (IPOHE); experiment: Post-emergence herbicidal test; conditions: 1000 g/ha unless otherwise stated, evaluated after 13 days
In short: as §1

SMILES: COC(=O)c1nn(-c2ccc(OC(F)(F)F)cc2)c2cccc(S(C)(=O)=O)c2c1=O [Compound P3, methyl 5-methylsulfonyl-4-oxo-1-[4-(trifluoromethoxy)phenyl]cinnoline-3-carboxylate]
- percentage damage caused to the plant, five-point scale, ECHCG [1]: 4 (4=61-80%)
- percentage damage caused to the plant, five-point scale, SOLNI (Solanum nigrum (SOLNI) [2]): 1 (1=10-20%)
- percentage damage caused to the plant, five-point scale, LOLPE (Lolium perenne (LOLPE) [3]): 4 (4=61-80%)
- percentage damage caused to the plant, five-point scale, IPOHE [4]: 1 (1=10-20%)
- percentage damage caused to the plant, five-point scale, SETFA (Setaria faberi (SETFA) [5]): 4 (4=61-80%)
- percentage damage caused to the plant, five-point scale, AMARE [6]: 1 (1=10-20%)
- percentage damage caused to the plant, AMARE (five-point scale) [7]: 1 (1=10-20%)
- percentage damage caused to the plant, SETFA (five-point scale) (Setaria faberi (SETFA) [8]): 4 (4=61-80%)
- percentage damage caused to the plant, ECHCG (five-point scale) [9]: 4 (4=61-80%)
- percentage damage caused to the plant, SOLNI (five-point scale) (Solanum nigrum (SOLNI) [10]): 1 (1=10-20%)
- percentage damage caused to the plant, LOLPE (five-point scale) (Lolium perenne (LOLPE) [11]): 4 (4=61-80%)
- percentage damage caused to the plant, IPOHE (five-point scale) [12]: 1 (1=10-20%)
